tested on: apyrase; experiment: Apyrase inhibition assay (screen for apyrase inhibitors, phosphate release read at 630 nm); assay type: biochemical; conditions: inhibitor conc at 1 mM (10 μl added), 3 mM ATP, pH 6.5, room temperature 1 hr
Protocol: Apyrase inhibitors useful as enhancers of pesticidal activity are assessed using an in vitro assay. The method of Windsor, Bio Techniques 33:1024-1030 (November 2002) was used as follows
• 96 well plates were used for the assay: (Greiner bio-one: REF-655901-96 well, PS, F-bottom, Clear, Non-binding)
• Reaction Buffer: 60 mM Hepes; 3 mM MgCl2, 3 mM CaCl2) and 3 mM ATP (pH 6.5) • Development Buffer A: 2% aqueous ammonium molybdate • Development Buffer B: 11% ascorbic acid in 37.5% TCA in water • Stop buffer C: 2% trisodium citrate in 2% acetic acid solution in water
• Add 100 μl of reaction buffer to each well. • Add 10 μl of DMSO (control) or inhibitor/compound or compounds such as N1915 or orthovanadate to each well. (use inhibitor conc at 1 mM; orthovanadate at 2 mM and N1915 at 1 mM) • Add 10 μl of apyrase (concentration based on optimization—Dilute 1 U/μl enzyme to different concentrations such as 0.1 U, 0.05 U, 0.0025, 0.001 U, 0.0005 U—to find a good range) • Incubate plate at room temperature for 1 hr • Mix development buffer A and B in the ratio of 1:1.5 (just before use). • Add 50 μl of A: B mix in each well (incubate for 2 mins) • Add 50 μl of C in each well • Measure/Read Absorbance of plate @630 nm
Inhibitory data for the apyrase assay described above are provided for selected compounds in Table 3. D is inhibition of 0% to 10%, C is inhibition from 10% to 20%, B is inhibition from 20% to 30%, and A is inhibition above 30%. Blank entries signify compounds that were not tested.

Question: Which Inhibition does the source give for CCCc1ccc(S(=O)(=O)Nc2ccc(S(=O)(=O)N=C3CCCCCN3)cc2)cc1 [Compound A-52, N-(azepan-2-ylidene)-4-((4-propylphenyl)sulfonamido) benzenesulfonamide] here?
Answer: C (C is inhibition from 10% to 20%)

Question: For CCCc1ccc(S(=O)(=O)Nc2ccccc2C(=O)OC)cc1 [Compound A-53, methyl 2-((4-propylphenyl)sulfonamido) benzoate], which Inhibition is on record?
Answer: C (C is inhibition from 10% to 20%)

Question: How did the Inhibition turn out when CCCc1ccc(S(=O)(=O)Nc2ccc3c(c2)OCCO3)cc1 [Compound A-54, N-(2,3-dihydrobenzo[b][1,4]dioxin-6-yl)-4-propylbenzenesulfonamide] was run?
Answer: D (D is inhibition of 0% to 10%)

Question: With CCCc1ccc(S(=O)(=O)Nc2ccccc2Br)cc1 [Compound A-55, N-(2-bromophenyl)-4-propylbenzenesulfonamide] as the compound, how does the Inhibition read?
Answer: D (D is inhibition of 0% to 10%)

Question: Cc1cccc(NS(=O)(=O)c2ccc(Cl)cc2)c1 [Compound A-56, 4-chloro-N-(m-tolyl)benzenesulfonamide] was tested. Which Inhibition did it give?
Answer: C (C is inhibition from 10% to 20%)

Question: How did the Inhibition turn out when Cc1cccc(NS(=O)(=O)c2ccccc2)c1 [Compound A-57, N-(m- tolyl)benzenesulfonamide] was run?
Answer: D (D is inhibition of 0% to 10%)

Question: For Cc1cccc(NS(=O)(=O)c2ccc(F)cc2)c1 [Compound A-58, 4-fluoro-N-(m-tolyl)benzenesulfonamide], which Inhibition is on record?
Answer: D (D is inhibition of 0% to 10%)

Question: Cc1cccc(NS(=O)(=O)c2ccc(S(=O)(=O)N3CCCC3)cc2)c1 [Compound A-60, 4-(pyrrolidin-1-ylsulfonyl)-N-(m-tolyl)benzenesulfonamide] was tested. Which Inhibition did it give?
Answer: D (D is inhibition of 0% to 10%)

Question: Cc1cccc(NS(=O)(=O)c2ccc(C=CC(=O)O)cc2)c1 [Compound A-61, 3-(4-(N-(m-tolyl)sulfamoyl)phenyl)acrylic acid] was tested. Which Inhibition did it give?
Answer: D (D is inhibition of 0% to 10%)

Question: How did the Inhibition turn out when Cc1cccc(NS(=O)(=O)c2ccc(OC(F)(F)F)cc2)c1 [Compound A-63, N-(m-tolyl)-4-(trifluoromethoxy)benzenesul-fonamide] was run?
Answer: C (C is inhibition from 10% to 20%)

Question: Which Inhibition does the source give for Cc1cccc(NS(=O)(=O)c2ccc(C(=O)O)cc2)c1 [Compound A-65, 4-(N-(m-tolyl)sulfamoyl)benzoic acid] here?
Answer: B (B is inhibition from 20% to 30%)

Question: Which Inhibition does the source give for Cc1cccc(NS(=O)(=O)c2ccc(C(=O)NCC(F)(F)F)cc2)c1 [Compound A-66, 4-(N-(m-tolyl)sulfamoyl)-N-(2,2,2-trifluoroethyl)benzamide] here?
Answer: C (C is inhibition from 10% to 20%)

Question: CCCc1ccc(S(=O)(=O)Nc2cc(Cl)ccc2Sc2nncn2C)cc1 [Compound A-67, N-(5-chloro-2-((4-methyl-4H-1,2,4-triazol-3-yl)thio)phenyl)-4-propylbenzenesulfonamide] was tested. Which Inhibition did it give?
Answer: C (C is inhibition from 10% to 20%)

Question: With CCCc1ccc(S(=O)(=O)Nc2cc(OC)c(Cl)cc2OC)cc1 [Compound A-68, N-(4-chloro-2,5-dimethoxyphenyl)-4-propylbenzenesulfonamide] as the compound, how does the Inhibition read?
Answer: D (D is inhibition of 0% to 10%)

Question: Which Inhibition does the source give for CCCc1ccc(S(=O)(=O)Nc2ccc3[nH]ncc3c2)cc1 [Compound A-69, N-(1H-indazol-5-yl)-4-propylbenzenesulfonamide] here?
Answer: D (D is inhibition of 0% to 10%)

Question: Which Inhibition does the source give for CCCc1ccc(S(=O)(=O)Nc2cccc([N+](=O)[O-])c2)cc1 [Compound A-70, N-(3-nitrophenyl)-4-propylbenzenesulfonamide] here?
Answer: C (C is inhibition from 10% to 20%)

Question: Which Inhibition does the source give for CCCc1ccc(S(=O)(=O)Nc2ccccc2Cl)cc1 [Compound A-71, N-(2-chlorophenyl)-4-propylbenzenesulfonamide] here?
Answer: D (D is inhibition of 0% to 10%)

Question: How did the Inhibition turn out when CCCc1ccc(S(=O)(=O)Nc2cccc(S(N)(=O)=O)c2)cc1 [Compound A-72, 4-propyl-N-(3-sulfamoylphenyl)benzene-sulfonamide] was run?
Answer: C (C is inhibition from 10% to 20%)

Question: CCCc1ccc(S(=O)(=O)Nc2ccccc2C(F)(F)F)cc1 [Compound A-73, 4-propyl-N-(2-(trifluoromethyl)phenyl) benzenesulfonamide] was tested. Which Inhibition did it give?
Answer: D (D is inhibition of 0% to 10%)

Question: Which Inhibition does the source give for CCCc1ccc(S(=O)(=O)Nc2cc(Cl)ccc2OC)cc1 [Compound A-74, N-(5-chloro-2-methoxyphenyl)-4-propylbenzenesulfonamide] here?
Answer: C (C is inhibition from 10% to 20%)

Question: CCCc1ccc(S(=O)(=O)Nc2cccc(C(=O)O)c2)cc1 [Compound A-75, 3-((4-propylphenyl)sulfonamido) benzoic acid] was tested. Which Inhibition did it give?
Answer: D (D is inhibition of 0% to 10%)

Question: For CCCc1ccc(S(=O)(=O)Nc2c(C(C)C)cccc2C(C)C)cc1 [Compound A-76, N-(2,6-diisopropylphenyl)-4-propylbenzenesulfonamide], which Inhibition is on record?
Answer: C (C is inhibition from 10% to 20%)

Question: CCCc1ccc(S(=O)(=O)Nc2cccc(NC(C)=O)c2)cc1 [Compound A-77, N-(3-((4-propylphenyl)sulfonamido)phenyl)acetamide] was tested. Which Inhibition did it give?
Answer: D (D is inhibition of 0% to 10%)

Question: With CCCc1ccc(S(=O)(=O)Nc2ccc(C(=O)N(CC)CC)cc2)cc1 [Compound A-78, N,N-diethyl-4-((4-propylphenyl)sulfonamido) benzamide] as the compound, how does the Inhibition read?
Answer: D (D is inhibition of 0% to 10%)

Question: How did the Inhibition turn out when CCCc1ccc(S(=O)(=O)Nc2ccc(S(=O)(=O)N(C)C3CCCCC3)cc2)cc1 [Compound A-79, N-cyclohexyl-N-methyl-4-((4-propylphenyl)sulfonamido) benzenesulfonamide] was run?
Answer: A (A is inhibition above 30%)

Question: Which Inhibition does the source give for CCCc1ccc(S(=O)(=O)Nc2ccc(S(=O)(=O)NC)cc2)cc1 [Compound A-80, N-methyl-4-((4-propylphenyl)sulfonamido) benzenesulfonamide] here?
Answer: D (D is inhibition of 0% to 10%)

Question: Which Inhibition does the source give for CCCc1ccc(S(=O)(=O)Nc2ccc(C(N)=O)cc2)cc1 [Compound A-81, 4-((4-propylphenyl)sulfonamido) benzamide] here?
Answer: D (D is inhibition of 0% to 10%)

Question: CCCc1ccc(S(=O)(=O)Nc2ccc(C)cc2Cl)cc1 [Compound A-82, N-(2-chloro-4-methylphenyl)-4-propylbenzenesulfonamide] was tested. Which Inhibition did it give?
Answer: C (C is inhibition from 10% to 20%)

Question: Which Inhibition does the source give for CCCCc1ccc(NS(=O)(=O)c2ccc(CCC)cc2)cc1 [Compound A-83, N-(4-butylphenyl)-4-propylbenzenesulfonamide] here?
Answer: B (B is inhibition from 20% to 30%)

Question: For CCCc1ccc(S(=O)(=O)Nc2cccc(C(N)=O)c2)cc1 [Compound A-84, 3-((4-propylphenyl)sulfonamido) benzamide], which Inhibition is on record?
Answer: D (D is inhibition of 0% to 10%)

Question: Which Inhibition does the source give for CCCc1ccc(S(=O)(=O)Nc2ccc(S(=O)(=O)Nc3nccs3)cc2)cc1 [Compound A-85, 4-propyl-N-(4-(N-(thiazol-2-yl)sulfamoyl)phenyl)benzene-sulfonamide] here?
Answer: D (D is inhibition of 0% to 10%)

Question: CCCc1ccc(S(=O)(=O)Nc2ccccc2C(N)=O)cc1 [Compound A-86, 2-((4-propylphenyl)sulfonamido) benzamide] was tested. Which Inhibition did it give?
Answer: D (D is inhibition of 0% to 10%)

Question: How did the Inhibition turn out when CCCc1ccc(S(=O)(=O)Nc2c(F)cccc2F)cc1 [Compound A-87, N-(2,6-difluorophenyl)-4-propylbenzenesulfonamide] was run?
Answer: C (C is inhibition from 10% to 20%)

Question: How did the Inhibition turn out when CCCc1ccc(S(=O)(=O)Nc2cc(C)ccc2OC)cc1 [Compound A-88, N-(2-methoxy-5-methylphenyl)-4-propylbenzenesulfonamide] was run?
Answer: D (D is inhibition of 0% to 10%)

Question: CCCc1ccc(S(=O)(=O)Nc2ccc(C)c(S(=O)(=O)N(C)C)c2)cc1 [Compound A-89, N,N,2-trimethyl-5-((4-propylphenyl)sulfonamido) benzenesulfonamide] was tested. Which Inhibition did it give?
Answer: D (D is inhibition of 0% to 10%)

Question: With CCCc1ccc(S(=O)(=O)Nc2cc(S(=O)(=O)N3CCCCC3)ccc2C)cc1 [Compound A-90, N-(2-methyl-5-(piperidin-1-ylsulfonyl)phenyl)-4-propylbenzenesulfonamide] as the compound, how does the Inhibition read?
Answer: A (A is inhibition above 30%)

Question: How did the Inhibition turn out when CCCc1ccc(S(=O)(=O)Nc2ccccc2Cc2ccccc2)cc1 [Compound A-91, N-(2-benzylphenyl)-4-propylbenzenesulfonamide] was run?
Answer: B (B is inhibition from 20% to 30%)

Question: For CCCc1ccc(S(=O)(=O)Nc2c(C)cccc2C)cc1 [Compound A-92, N-(2,6-dimethylphenyl)-4-propylbenzenesulfonamide], which Inhibition is on record?
Answer: B (B is inhibition from 20% to 30%)

Question: How did the Inhibition turn out when CCCc1ccc(S(=O)(=O)Nc2ccc(-c3nnc4n3CCCCC4)cc2)cc1 [Compound A-93, 4-propyl-N-(4-(6,7,8,9-tetrahydro-5H-[1,2,4]triazolo[4,3-a]azepin-3-yl)phenyl) benzenesulfonamide] was run?
Answer: D (D is inhibition of 0% to 10%)

Question: How did the Inhibition turn out when CCCc1ccc(S(=O)(=O)Nc2ccccc2NS(=O)(=O)c2ccc(F)cc2)cc1 [Compound A-94, 4-fluoro-N-(2-((4-propylphenyl)sulfonamido)phenyl)benzenesulfonamide] was run?
Answer: A (A is inhibition above 30%)
